Test results as given in patent US20260102501A1, “ANTI-CANCER NUCLEAR HORMONE RECEPTOR-TARGETING COMPOUNDS” (Nuvation Bio Inc., priority 2022, published 2026).
pIC50: −log10 of the molar value. Where a name gives a salt, the structure may show the parent alone. Read-outs that look alike come from different tables or passages of the source. Numbered stars: 1 amine (or outer) side, 2 acyl side, 3 side chain; on linkers, the order of the positions; unused ones are H or OH. Square brackets hold non-standard residues; d marks the D form. Peptide text beside a SMILES is read from it. * marks the point of attachment. X1 = CC(=O)O[C@]1(C(C)=O)CC[C@H]2[C@@H]3CCC4=CC(=O)CCC4=C3[C@@H](c3ccc(*)cc3)C[C@@]21C; Exatecan = CC[C@@]1(O)C(=O)OCc2c1cc1n(c2=O)Cc2c-1nc1cc(F)c(C)c3c1c2[C@@H](N*)CC3; NHCH2OCH2CO = O=C(COCN[*:1])[*:2]; Sar = CNCC(=O)O

What was measured:
LNCap cells = test: Cell viability assay (CellTiterGlo); format: cell-based; conditions: Homo sapiens, 144 h; for pIC50: 6 days incubation, CellTiterGlo, read-out: LNCap (IC50); for IC50: read-out: LNCap (IC50, nM)
[1] = biological target: T1, AR (cytosol from LnCaP cells) (Homo sapiens, UniProt P10275, T878A); test: AR binding assay (3H-R1881 displacement)
T1 sequence (P10275 1-920 T878A): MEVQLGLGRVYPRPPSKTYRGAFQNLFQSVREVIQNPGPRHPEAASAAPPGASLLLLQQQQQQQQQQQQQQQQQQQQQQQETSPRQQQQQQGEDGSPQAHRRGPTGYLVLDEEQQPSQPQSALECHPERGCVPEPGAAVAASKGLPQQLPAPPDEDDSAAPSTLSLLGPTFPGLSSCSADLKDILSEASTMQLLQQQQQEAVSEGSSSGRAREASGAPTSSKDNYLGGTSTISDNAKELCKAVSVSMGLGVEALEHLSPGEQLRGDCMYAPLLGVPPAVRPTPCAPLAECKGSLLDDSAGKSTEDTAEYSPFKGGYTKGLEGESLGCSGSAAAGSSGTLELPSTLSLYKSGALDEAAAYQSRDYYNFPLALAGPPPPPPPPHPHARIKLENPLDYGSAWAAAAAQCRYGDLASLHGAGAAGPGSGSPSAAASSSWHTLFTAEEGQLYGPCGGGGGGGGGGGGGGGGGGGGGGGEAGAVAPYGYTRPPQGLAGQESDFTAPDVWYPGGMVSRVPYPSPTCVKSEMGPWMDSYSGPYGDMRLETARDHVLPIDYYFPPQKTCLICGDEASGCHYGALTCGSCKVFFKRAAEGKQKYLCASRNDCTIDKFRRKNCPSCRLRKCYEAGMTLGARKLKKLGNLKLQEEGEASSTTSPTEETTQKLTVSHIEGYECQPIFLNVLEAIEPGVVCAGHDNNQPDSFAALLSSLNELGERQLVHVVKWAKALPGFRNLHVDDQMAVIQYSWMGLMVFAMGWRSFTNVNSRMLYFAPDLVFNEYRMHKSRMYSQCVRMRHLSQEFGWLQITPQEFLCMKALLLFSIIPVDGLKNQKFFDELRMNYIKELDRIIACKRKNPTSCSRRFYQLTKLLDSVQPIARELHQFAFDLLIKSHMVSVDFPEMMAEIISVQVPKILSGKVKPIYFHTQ
Description: The plate was then centrifuged at 3000 rpm for 30 minutes at 4° C.

[2] = biological target: T2, ligand binding domain of the glucocorticoid receptor (HEK293 cells stably expressing) (Homo sapiens, UniProt P04150); test: GR antagonism assay (luciferase reporter)
T2 sequence (P04150 524-758 limits assumed): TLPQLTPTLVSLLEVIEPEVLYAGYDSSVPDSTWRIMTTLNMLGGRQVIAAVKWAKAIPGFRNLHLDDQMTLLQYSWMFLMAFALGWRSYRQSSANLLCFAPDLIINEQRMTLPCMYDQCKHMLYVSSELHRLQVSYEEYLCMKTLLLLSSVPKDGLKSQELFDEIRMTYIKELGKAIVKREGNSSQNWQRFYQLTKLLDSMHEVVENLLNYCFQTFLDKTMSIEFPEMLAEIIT
Description: HEK293 cells stably expressing the ligand binding domain of the glucocorticoid receptor were seeded at a density of 40000 cells/well in the assay plate. The assay plate was then incubated at 37° C., 5% CO2 for 30 minutes. Dexamethasone was added to the assay plate at 1.5 nM final concentration and the assay plate incubated at 37° C., 5% CO2 for 20 h. After the incubation period, Dual-glo luciferase reagent was added to the assay plate and mixed at room temperature for 20 minutes on an orbital shaker, before reading out on the En Vision plate reader. 50 μL of Stop & Glo reagent was added to assay plate, mixed at room temperature for 20 minutes, and read on the Envision plate reader.

[3] = biological target: T3, Progesterone PR-B receptors from human breast carcinoma T47D cells (Homo sapiens, UniProt P06401); test: PR binding assay ([3H] Progesterone displacement)
T3 sequence (P06401 1-933): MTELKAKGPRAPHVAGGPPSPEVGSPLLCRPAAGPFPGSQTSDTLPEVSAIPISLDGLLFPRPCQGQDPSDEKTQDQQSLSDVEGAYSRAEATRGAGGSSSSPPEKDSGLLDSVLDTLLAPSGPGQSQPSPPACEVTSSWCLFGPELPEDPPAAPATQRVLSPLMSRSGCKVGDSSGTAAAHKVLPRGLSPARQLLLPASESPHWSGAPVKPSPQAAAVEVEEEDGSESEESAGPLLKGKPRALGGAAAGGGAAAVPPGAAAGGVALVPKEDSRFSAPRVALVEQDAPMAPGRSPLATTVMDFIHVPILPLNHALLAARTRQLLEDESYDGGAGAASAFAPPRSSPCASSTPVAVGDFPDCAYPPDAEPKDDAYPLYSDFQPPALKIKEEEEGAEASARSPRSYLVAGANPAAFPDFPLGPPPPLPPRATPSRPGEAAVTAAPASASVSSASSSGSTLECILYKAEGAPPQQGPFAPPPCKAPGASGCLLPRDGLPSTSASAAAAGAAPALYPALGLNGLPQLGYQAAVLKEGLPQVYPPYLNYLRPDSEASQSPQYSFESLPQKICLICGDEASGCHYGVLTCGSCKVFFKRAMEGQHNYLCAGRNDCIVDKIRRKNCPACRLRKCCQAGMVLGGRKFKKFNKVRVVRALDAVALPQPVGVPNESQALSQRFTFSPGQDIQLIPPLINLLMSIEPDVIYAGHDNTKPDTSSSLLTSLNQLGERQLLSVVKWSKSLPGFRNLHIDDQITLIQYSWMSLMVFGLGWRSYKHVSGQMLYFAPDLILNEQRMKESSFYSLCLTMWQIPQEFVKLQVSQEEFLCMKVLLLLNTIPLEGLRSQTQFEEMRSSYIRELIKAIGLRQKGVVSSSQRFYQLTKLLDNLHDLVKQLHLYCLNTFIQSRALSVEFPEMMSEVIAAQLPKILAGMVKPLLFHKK

Question: What does the source list for CC[C@@]1(O)C(=O)OCc2c1cc1n(c2=O)Cc2c-1nc1cc(F)c(C)c3c1c2[C@@H](NC(=O)COCCCCCCN(C)c1ccc([C@H]2C[C@@]4(C)[C@@H](CC[C@]4(OC(C)=O)C(C)=O)[C@@H]4CCC5=CC(=O)CCC5=C42)cc1)CC3 [Compound No. 47, (8S,11R,13S,14S,17R)-17-acetyl-11-(4-((6-(2-(((1S,9S)-9-ethyl-5-fluoro-9-hydroxy-4-methyl-10,13-dioxo-2,3,9,10,13,15-hexahydro-1H,12H-benzo[de]pyrano [3′,4′:6,7]indolizino[1,2-b]quinolin-1-yl)amino)-2-oxoethoxy)hexyl)(methyl)amino)phenyl)-13-methyl-3-oxo-2,3,6,7,8,11,12,13,14,15,16,17-dodecahydro-1H-cyclopenta[a]phenanthren-17-yl acetate]?
Answer: pIC50 (LNCap cells): 7.00 to 8.00; pIC50 [1]: 7.00 to 8.00; pIC50 [2]: 6.00 to 7.00; pIC50 [3]: > 8.00

Question: Which results are given for CC[C@@]1(O)C(=O)OCc2c1cc1n(c2=O)Cc2cc3c(CN4CCN(CCCCCCN(C)c5ccc([C@H]6C[C@@]7(C)[C@@H](CC[C@]7(OC(C)=O)C(C)=O)[C@@H]7CCC8=CC(=O)CCC8=C76)cc5)CC4)c(O)ccc3nc2-1 [Compound 36, (8S,11R,13S,14S,17R)-17-acetyl-11-(4-((6-(4-(((S)-4-ethyl-4,9-dihydroxy-3,14-dioxo-3,4,12,14-tetrahydro-1H-pyrano[3′,4′:6,7]indolizino[1,2-b]quinolin-10-yl)methyl)piperazin-1-yl)hexyl)(methyl)amino)phenyl)-13-methyl-3-oxo-2,3,6,7,8,11,12,13,14,15,16,17-dodecahydro-1H-cyclopenta[a]phenanthren-17-yl acetate]?
Answer: pIC50 (LNCap cells): 7.00 to 8.00; pIC50 [1]: 7.00 to 8.00; pIC50 [2]: > 8.00; pIC50 [3]: > 8.00

Question: With CC[C@@]1(O)C(=O)OCc2c1cc1n(c2=O)Cc2cc3c(CN4CCN(C(=O)C5CCN(c6ccc(C(=O)N[C@H]7CC[C@H](Oc8ccc(C#N)c(Cl)c8C)CC7)nn6)CC5)CC4)c(OC(=O)N4C[C@H](C)N(C)C[C@H]4C)ccc3nc2-1 [Compound 30, (S)-10-((4-(1-(6-(((1r,4r)-4-(3-Chloro-4-cyano-2-methylphenoxy)cyclohexyl)carbamoyl)-pyridazin-3-yl)piperidine-4-carbonyl)piperazin-1-yl)methyl)-4-ethyl-4-hydroxy-3,14-dioxo-3,4,12,14-tetrahydro-1H-pyrano[3′,4′:6,7]indolizino[1,2-b]quinolin-9-yl (2R,5S)-2,4,5-trimethylpiperazine-1-carboxylate Formate] as the molecule, how does the IC50 (LNCap cells) read?
Answer: 10 to 100 nM

Question: What about the pIC50 [1] of the same molecule?
Answer: > 8.00

Question: And the pIC50 [2]?
Answer: < 6.00

Question: What about the pIC50 [3] of the same molecule?
Answer: > 8.00

Question: How did the IC50 (LNCap cells) turn out when CC[C@@]1(O)C(=O)OCc2c1cc1n(c2=O)Cc2cc3c(CN(C)C)c(OC(=O)N4CCN(CC5CCN(c6ccc(C(=O)N[C@H]7CC[C@H](Oc8ccc(C#N)c(Cl)c8C)CC7)nn6)CC5)CC4)ccc3nc2-1 [Compound 31, (S)-10-((Dimethylamino)methyl)-4-ethyl-4-hydroxy-3,14-dioxo-3,4,12,14-tetrahydro-1H-pyrano[3′,4′:6,7]indolizino[1,2-b]quinolin-9-yl 4-((1-(6-(((1r,4r)-4-(3-chloro-4-cyano-2-methylphenoxy)cyclohexyl)carbamoyl)pyridazin-3-yl)piperidin-4-yl)methyl)piperazine-1-carboxylate Formate] was run?
Answer: 10 to 100 nM

Question: What about the pIC50 [1] of the same molecule?
Answer: > 8.00

Question: What about the pIC50 [2] of the same molecule?
Answer: < 6.00

Question: What about the pIC50 [3] of the same molecule?
Answer: > 8.00

Question: CC[C@@]1(O)C(=O)OCc2c1cc1n(c2=O)Cc2c-1nc1cc(F)c(C)c3c1c2[C@@H](NCC1CCN(CC2CCN(C(=O)CN(C)c4ccc([C@H]5C[C@@]6(C)[C@@H](CC[C@]6(OC(C)=O)C(C)=O)[C@@H]6CCC7=CC(=O)CCC7=C65)cc4)CC2)CC1)CC3 [Compound No. 51, (8S,11R,13S,14S,17R)-17-acetyl-11-(4-((2-(4-((4-((((1S,9S)-9-ethyl-5-fluoro-9-hydroxy-4-methyl-10,13-dioxo-2,3,9,10,13,15-hexahydro-1H,12H-benzo[de]pyrano[3′,4′:6,7]indolizino[1,2-b]quinolin-1-yl)amino)methyl)piperidin-1-yl)methyl)piperidin-1-yl)-2-oxoethyl)(methyl)amino)phenyl)-13-methyl-3-oxo-2,3,6,7,8,11,12,13,14,15,16,17-dodecahydro-1H-cyclopenta[a]phenanthren-17-yl acetate] was tested. Which pIC50 (LNCap cells) did it give?
Answer: 7.00 to 8.00

Question: What about the pIC50 [1] of the same molecule?
Answer: > 8.00

Question: And the pIC50 [2]?
Answer: 7.00 to 8.00

Question: And the pIC50 [3]?
Answer: > 8.00

Question: How did the pIC50 (LNCap cells) turn out when CC[C@@]1(O)C(=O)OCc2c1cc1n(c2=O)Cc2c-1nc1cc(F)c(C)c3c1c2[C@@H](N(C)C(=O)COCC1CCN(CCCCCCCN(C)c2ccc([C@H]4C[C@@]5(C)[C@@H](CC[C@]5(OC(C)=O)C(C)=O)[C@@H]5CCC6=CC(=O)CCC6=C54)cc2)CC1)CC3 [Compound 55, (8S,11R,13S,14S,17R)-17-acetyl-11-(4-((7-(4-((2-(((1S,9S)-9-ethyl-5-fluoro-9-hydroxy-4-methyl-10,13-dioxo-2,3,9,10,13,15-hexahydro-1H,12H-benzo[de]pyrano[3′,4′:6,7]indolizino[1,2-b]quinolin-1-yl)(methyl)amino)-2-oxoethoxy)methyl)piperidin-1-yl)heptyl)(methyl)amino)phenyl)-13-methyl-3-oxo-2,3,6,7,8,11,12,13,14,15,16,17-dodecahydro-1H-cyclopenta[a]phenanthren-17-yl acetate] was run?
Answer: 6.00 to 7.00

Question: And the pIC50 [1]?
Answer: 7.00 to 8.00

Question: And the pIC50 [2]?
Answer: 7.00 to 8.00

Question: And the pIC50 [3]?
Answer: > 8.00

Question: Which results are given for CC[C@@]1(O)C(=O)OCc2c1cc1n(c2=O)Cc2c-1nc1cc(F)c(C)c3c1c2[C@@H](NC(=O)COCNC(=O)CNC(=O)[C@H](Cc1ccccc1)NC(=O)CNC(=O)CN(C)c1ccc([C@H]2C[C@@]4(C)[C@@H](CC[C@]4(OC(C)=O)C(C)=O)[C@@H]4CCC5=CC(=O)CCC5=C42)cc1)CC3 [Compound 34, (8S,11R,13S,14S,17R)-17-Acetyl-11-(4-(((S)-10-benzyl-1-(((1S,9S)-9-ethyl-5-fluoro-9-hydroxy-4-methyl-10,13-dioxo-2,3,9,10,13,15-hexahydro-1H,12H-benzo[de]pyrano[3′,4′:6,7]indolizino[1,2-b]quinolin-1-yl)amino)-1,6,9, 12,15-pentaoxo-3-oxa-5,8,11,14-tetraazahexadecan-16-yl)(methyl)amino)phenyl)-13-methyl-3-oxo-2,3,6,7,8,11,12,13,14,15,16,17-dodecahydro-1H-cyclopenta[a]phenanthren-17-yl Acetate] (X1-[Sar]GFG[NHCH2OCH2CO]-Exatecan)?
Answer: pIC50 [1]: 7.00 to 8.00; pIC50 [2]: 6.00 to 7.00; pIC50 [3]: > 8.00
